Measured values published in ChEMBL document CHEMBL1133974, “Synthesis and in vitro evaluation of a series of diketopiperazine inhibitors of plasminogen activator inhibitor-1” (Bioorg Med Chem Lett, 2001).

How the values were obtained:
[1] = molecular target: T1, Plasminogen activator inhibitor 1 (Homo sapiens, UniProt P05121); assay: Inhibitory activity of compound against Plasminogen activator inhibitor-1
[2] = molecular target: T1, Plasminogen activator inhibitor 1; assay: Tissue plasminogen activator generation in plasmin was evaluated by measuring the ability to inhibit Plasminogen activator inhibitor-1 through complex assay
[3] = molecular target: T1, Plasminogen activator inhibitor 1; assay: Tissue plasminogen activator generation in plasmin was evaluated by measuring the ability to inhibit Plasminogen activator inhibitor-1 through fibrin plate assay

T1 sequence (P05121 whole entry): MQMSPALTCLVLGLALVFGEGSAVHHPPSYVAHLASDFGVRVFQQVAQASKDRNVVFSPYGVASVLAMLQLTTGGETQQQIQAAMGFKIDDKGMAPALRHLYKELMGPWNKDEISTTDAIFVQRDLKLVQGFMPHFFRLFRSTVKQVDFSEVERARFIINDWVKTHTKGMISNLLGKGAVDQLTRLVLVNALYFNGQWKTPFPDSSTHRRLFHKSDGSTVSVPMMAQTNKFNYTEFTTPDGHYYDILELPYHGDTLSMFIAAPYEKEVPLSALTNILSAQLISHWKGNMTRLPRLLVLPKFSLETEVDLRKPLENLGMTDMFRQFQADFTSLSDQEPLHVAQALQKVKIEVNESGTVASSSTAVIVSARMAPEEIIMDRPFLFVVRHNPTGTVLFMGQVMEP

| IC50 [1] [µM] | IC50 [2] [µM] | IC50 [3] [µM] | Compound |
| --- | --- | --- | --- |
| 10.9 | – | – | COc1ccc(/C=c2\[nH]c(=O)/c(=C/c3ccc(SCCN(C)C)s3)[nH]c2=O)cc1 |
| > 25 | – | – | CN(C)CCSc1ccc(/C=c2\[nH]c(=O)/c(=C/c3ccccc3Br)[nH]c2=O)s1 |
| 0.52 | – | – | O=C(O)CCCCCCC(=O)Nc1ccc(/C=c2\[nH]c(=O)/c(=C/c3ccc(NC(=O)c4cccs4)cc3)[nH]c2=O)cc1 |
| 3.1 | – | – | CN(C)CCSc1ccc(/C=c2\[nH]c(=O)/c(=C/c3ccc(NC(=O)c4cccs4)cc3)[nH]c2=O)s1 |
| 0.39 | – | – | O=C(O)CCCCCCCCC(=O)Nc1ccc(/C=c2\[nH]c(=O)/c(=C/c3ccc(NC(=O)c4cccs4)cc3)[nH]c2=O)cc1 |
| 15 | – | – | O=C(O)CCCCOc1ccc(/C=c2\[nH]c(=O)/c(=C/c3ccccc3)[nH]c2=O)cc1 |
| 20 | – | – | O=C(O)CCCOc1ccc(/C=c2\[nH]c(=O)/c(=C/c3ccccc3)[nH]c2=O)cc1 |
| 12.4 | – | – | Cc1ccc(/C=c2\[nH]c(=O)/c(=C/c3ccc(SCCN(C)C)s3)[nH]c2=O)cc1 |
| > 25 | – | – | CN(C)CCSc1ccc(/C=c2\[nH]c(=O)/c(=C/c3ccc(N(C)C)cc3)[nH]c2=O)s1 |
| 6.1 | – | – | CN(C)CCSc1ccc(/C=c2\[nH]c(=O)/c(=C/c3ccc(NC(=O)c4ccccc4)cc3)[nH]c2=O)s1 |
| 17.7 | – | – | COC(=O)c1ccc(/C=c2\[nH]c(=O)/c(=C/c3ccc(SCCN(C)C)s3)[nH]c2=O)cc1 |
| 1.75 | – | – | O=C(O)CCCCOc1ccc(/C=c2\[nH]c(=O)/c(=C/c3ccc(NC(=O)c4cccs4)cc3)[nH]c2=O)cc1 |
| 1.93 | – | – | COC(=O)CCCCCCCOc1ccc(/C=c2\[nH]c(=O)/c(=C/c3ccc(NC(=O)c4cccs4)cc3)[nH]c2=O)cc1 |
| > 25 | – | – | CN(C)CCOc1ccc(/C=c2\[nH]c(=O)/c(=C/c3ccccc3)[nH]c2=O)s1 |
| > 25 | – | – | CN(C)CCSc1ccc(/C=c2\[nH]c(=O)/c(=C/c3ccc(C#N)cc3)[nH]c2=O)s1 |
| 0.2 | 0.51 | 0.26 | O=C(O)CCCCCCCOc1ccc(/C=c2\[nH]c(=O)/c(=C/c3ccc(NC(=O)c4cccs4)cc3)[nH]c2=O)cc1 |
| > 25 | – | – | CCN(CC)CCSc1ccc(/C=c2\[nH]c(=O)/c(=C/c3ccccc3)[nH]c2=O)s1 |
| > 25 | – | – | O=C(O)COc1ccc(/C=c2\[nH]c(=O)/c(=C/c3ccccc3)[nH]c2=O)cc1 |
| > 25 | – | – | CN(C)CC[S+]([O-])c1ccc(/C=c2\[nH]c(=O)/c(=C/c3ccccc3)[nH]c2=O)s1 (stereo unspecified) |
| 13.1 | – | – | CN(C)CCSc1ccc(/C=c2\[nH]c(=O)/c(=C/c3ccc(Br)cc3)[nH]c2=O)s1 |
| 4.77 | – | – | COC(=O)CCCCCCC(=O)Nc1ccc(/C=c2\[nH]c(=O)/c(=C/c3ccc(NC(=O)c4cccs4)cc3)[nH]c2=O)cc1 |
| > 25 | – | – | O=C(O)c1ccc(/C=c2\[nH]c(=O)/c(=C/c3ccccc3)[nH]c2=O)cc1 |
| 3.5 | – | – | CN(C)CCSc1ccc(/C=c2\[nH]c(=O)/c(=C/c3ccccc3)[nH]c2=O)s1 |
| > 25 | – | – | CN(C)CCSc1ccc(/C=c2\[nH]c(=O)/c(=C/c3cccc(Cl)c3)[nH]c2=O)s1 |
